Measured values: patent US20090143457A1, “POLYCYCLIC COMPOUNDS FOR USE IN TREATING OCULAR NEURODEGENERATIVE DISEASES” (NORTHEASTERN OHIO UNIVERSITIES COLLEGE OF MEDICINE, priority 2007, published 2009)
Several values for one entry are separate records, joined by “and”; a condition that tells them apart may be missing. Identical values can stand only once.

Tests used:
[1] = test system: MK-801 binding site in the NMDA channel; experiment: [3H]MK-801 displacement binding in homogenate in the presence of NMDA and Gly; conditions: for Hill slope value: dose-response of [3H]MK-801 binding; for displacement of [3H]MK-801: NMDA (100 μM) and Gly (100 μM), 5 nM [3H]MK-801, relative to total binding
Experimental: Now referring to FIG. 3, an example graph 300 that illustrates that at least a subset of the compounds described above have an affinity for the MK-801 binding site in the NMDA channel is presented. More particularly, some triquinylamine compounds may have an affinity for the MK-801 binding site in the NMDA channel. The triquinane-derived azatricycloundecane compounds 100, 102, 108, 116, and 118 (FIGS. 1a, 1b, 1e, 1i, and 1j, respectively) were tested for an ability to displaced labeled MK-801, and the results of such testing are shown in FIG. 3. The graph 300 also illustrates total binding of radiolabeled MK-801 (Total) and non-specific binding of unlabelled MK-801 (NS). […] Specific [^3H]MK-801 binding to the homogenate can be estimated by subtracting non-specific binding (NS) obtained in the presence of 100 μM unlabeled MK-801 from the total binding. Specific binding represented 75% of the total binding and non-specific binding only 25% of total binding at 5 nM [^3H]MK-80 1. Unlabeled MK-80 1 used to determine the non-specific binding also served as a reference compound. NMDA-stimulated displacement for each tested compound was calculated as the difference between the measured value for the labeled MK-801 in the presence of each test compound, and the total binding, although the purpose of the graph 300 represents only the non-specific binding for that particular compound. The compound 118 displaced [^3H]MK-801 by 41.09±4.1%. For the compounds 116, 108, 100, and 102, respectively, there was no statistically significant displacement of [^3H]MK-801, and displacement values were calculated to be 16.93±4.1%, 14.35±7.9%, 20.85±11.7%, and 9.28±6.17%, respectively. Statistical significance compared to total binding in a t-test is (*) p<0.05, (**) p<0.001.
Referring now to FIG. 4, an example graph 400 that illustrates dose-dependent effect of compound 118 shown in FIG. 1j on [^3H]MK-801 binding in the presence of NMDA (100 μM) and Gly (100 μM). More particularly, the graph 400 depicts results of a dose-response curve fitting that was performed to determine the IC50 value for the compound 118. […] The Hill slope values for compounds with high-affinity as NMDA antagonists (MK-801, Memantine, and NGP1-01) are near unity, with lower potency compounds having greater Hill slop values. The Hill slope value for the compound 118 was −1.157±0.052.

[2] = test system: L-type calcium channel; experiment: IC50 with respect to the L-type calcium channel; format: biochemical

| Compound | Hill slope value [1] | IC50 [2] | further results |
| --- | --- | --- | --- |
| C[C@]12N[C@H](Cc3ccccc31)c1ccccc12 [MK-801, reference compound] | near unity |  |  |
| CC12CC3CC(C)(C1)CC(N)(C3)C2 [Memantine, reference compound] | near unity |  |  |
| OC12C3C4CC5C6C4C1C6C(C53)N2CCc1ccccc1 (centres unmarked) [compound 104, N-phenylethyl-4-azahexacyclo[5.4.1.0^2,6.0.0^5,9.0^8,11]dodecan-3-ol] |  | 6.8 µM |  |
| CCCCCCCN1C2C3C4CC5C6C4C2C6C1(O)C53 (centres unmarked) [compound 106, N-heptyl-4-azahexacyclo[5.4.1.0^2,6.0.0^5,9.0^8,11]dodecan-3-ol] |  | 7.5 µM |  |
| c1ccc(CCNC23OC4C5C6CC(C7C6C4C72)C53)cc1 (centres unmarked) [compound 112, 8-phenylethylamino-8,11-oxapentacyclo[5.4.0.0^2,6.0^3,10.0^5,9]undecane] |  | 36.4 µM and 36.9 µM |  |
| c1ccc(CNC23OC4C5C6CC(C7C6C4C72)C53)cc1 (centres unmarked) [compound 120, 8-benzylamino-8,11-oxapentacyclo[5.4.0.0^2,6.0^3,10.0^5,9]undecane] | near unity | 60 µM |  |
| CCCCCCCN1CCC2CC3CCCC3C21 (centres unmarked) [compound 122, N-heptyl-3,1-azatricyclo[6.3.0.0^2,6]undecane] |  | 55 µM |  |
| N-(pyridin-4-ylmethyl)-3,11-azatricyclo[6.3.0.0^2,6]undecane [compound 102] |  | 4.9 µM | displacement of [3H]MK-801 [1]: 9.28±6.17% |
| N-benzyl-3,11-azatricyclo[6.3.0.0^2,6]undecane [compound 118] | −1.157±0.052 |  | displacement of [3H]MK-801 [1]: 41.09±4.1%; affinity for the NMDAR (comparison among triquinane-derived compounds) ([1]; among compounds 100, 102, 108, 116 and 118): highest affinity; IC50 ([1]; in the presence of NMDA (100 μM) and Gly (100 μM), dose-response curve fitting): 1.93 ± 0.018 µM |
| N-benzyl-4-azahexacyclo[5.4.1.0^2,6.0.0^5,9.0^8,11]dodecan-3-ol [compound 110] |  | 32.9 µM |  |
| N-cyclohexylmethyl-3,11-azatricyclo[6.3.0.0^2,6]undecane [compound 116] |  | 46 µM and 53 µM | displacement of [3H]MK-801 [1]: 16.93±4.1% |
